The target in assay [1] is T1, hNav1.7 (Homo sapiens (Human), UniProt Q15858). Nature of the assay: Tritiated compound binding to membranes from cells expressing hNav1.7 and the β1 subunit (Nav1.7 LBA EVO). To be noted: competitive binding vs [3H]compound, membranes with hNav1.7 and β1 subunit. In outline:
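Membranes from cells expressing hNav1.7 plus β1 were incubated at room temperature with [3H]-labelled Nav1.7 inhibitor and test compound in 100 mM NaCl, 20 mM Tris pH 7.4, 0.01% BSA. Two protocols: 100 pM radioligand for 18 h, or 300 pM for 3 h. Non-specific binding was set with 1 μM unlabelled compound; filtration/scintillation gave IC50 by 4-parameter fit.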
Target sequence in this assay (Q15858 whole entry, looked up): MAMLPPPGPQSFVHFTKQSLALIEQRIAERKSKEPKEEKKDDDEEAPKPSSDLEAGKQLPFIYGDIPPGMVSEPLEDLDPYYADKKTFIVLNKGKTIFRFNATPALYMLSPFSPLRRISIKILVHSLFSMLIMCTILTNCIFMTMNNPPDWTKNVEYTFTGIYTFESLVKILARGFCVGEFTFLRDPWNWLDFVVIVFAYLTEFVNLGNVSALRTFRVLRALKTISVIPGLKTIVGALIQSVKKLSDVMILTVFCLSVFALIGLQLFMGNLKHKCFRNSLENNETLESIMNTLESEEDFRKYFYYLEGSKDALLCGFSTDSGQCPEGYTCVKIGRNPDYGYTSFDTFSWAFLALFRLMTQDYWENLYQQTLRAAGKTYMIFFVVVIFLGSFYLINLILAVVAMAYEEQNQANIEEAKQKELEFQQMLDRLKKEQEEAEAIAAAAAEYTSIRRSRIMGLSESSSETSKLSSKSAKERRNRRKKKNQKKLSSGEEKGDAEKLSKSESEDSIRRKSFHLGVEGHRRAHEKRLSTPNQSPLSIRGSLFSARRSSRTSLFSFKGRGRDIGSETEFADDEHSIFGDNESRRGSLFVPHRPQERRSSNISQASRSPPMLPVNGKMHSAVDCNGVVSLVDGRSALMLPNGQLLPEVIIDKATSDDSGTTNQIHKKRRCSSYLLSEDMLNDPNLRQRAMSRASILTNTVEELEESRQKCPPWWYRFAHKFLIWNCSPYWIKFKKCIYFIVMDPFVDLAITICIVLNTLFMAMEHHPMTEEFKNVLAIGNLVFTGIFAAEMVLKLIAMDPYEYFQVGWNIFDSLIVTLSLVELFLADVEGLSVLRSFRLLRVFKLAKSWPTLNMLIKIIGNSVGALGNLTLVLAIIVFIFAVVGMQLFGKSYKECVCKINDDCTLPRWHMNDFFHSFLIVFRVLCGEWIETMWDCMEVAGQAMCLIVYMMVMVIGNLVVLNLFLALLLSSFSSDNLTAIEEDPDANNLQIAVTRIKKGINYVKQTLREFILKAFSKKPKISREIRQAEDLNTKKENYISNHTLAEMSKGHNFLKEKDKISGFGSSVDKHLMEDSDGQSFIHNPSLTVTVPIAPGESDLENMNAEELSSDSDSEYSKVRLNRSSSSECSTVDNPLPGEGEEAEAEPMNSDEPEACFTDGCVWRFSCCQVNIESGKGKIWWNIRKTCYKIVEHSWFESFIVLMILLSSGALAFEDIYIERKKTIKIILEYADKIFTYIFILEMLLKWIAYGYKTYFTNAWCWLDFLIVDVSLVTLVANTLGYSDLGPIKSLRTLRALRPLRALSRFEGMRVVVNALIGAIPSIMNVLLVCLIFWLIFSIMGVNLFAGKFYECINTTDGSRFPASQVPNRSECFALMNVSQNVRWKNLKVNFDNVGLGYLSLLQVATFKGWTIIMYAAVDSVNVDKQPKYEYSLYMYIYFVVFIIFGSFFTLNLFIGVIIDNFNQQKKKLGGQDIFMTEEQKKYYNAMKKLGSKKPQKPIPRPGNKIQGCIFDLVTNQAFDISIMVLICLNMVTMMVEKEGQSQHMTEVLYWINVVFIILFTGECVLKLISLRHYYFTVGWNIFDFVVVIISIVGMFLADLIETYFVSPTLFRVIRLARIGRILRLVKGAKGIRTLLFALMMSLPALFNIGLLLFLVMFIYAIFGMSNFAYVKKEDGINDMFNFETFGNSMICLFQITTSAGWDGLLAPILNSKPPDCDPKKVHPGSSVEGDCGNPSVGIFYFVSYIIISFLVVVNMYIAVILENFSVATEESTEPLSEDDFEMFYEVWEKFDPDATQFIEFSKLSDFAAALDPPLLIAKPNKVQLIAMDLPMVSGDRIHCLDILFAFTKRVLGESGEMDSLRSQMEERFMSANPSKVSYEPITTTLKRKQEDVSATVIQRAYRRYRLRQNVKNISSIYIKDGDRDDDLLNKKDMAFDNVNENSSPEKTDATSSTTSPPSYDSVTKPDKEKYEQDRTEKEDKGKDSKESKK
Target sequence in this assay (Q07699 whole entry partner, looked up): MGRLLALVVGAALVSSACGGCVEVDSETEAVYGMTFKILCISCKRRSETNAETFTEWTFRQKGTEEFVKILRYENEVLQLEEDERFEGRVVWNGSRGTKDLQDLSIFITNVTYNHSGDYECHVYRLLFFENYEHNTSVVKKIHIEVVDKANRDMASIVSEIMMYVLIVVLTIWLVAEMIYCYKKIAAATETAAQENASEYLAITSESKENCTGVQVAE

The target of assay [2] is T1, hNav1.7. As to the kind of experiment: Patch voltage clamp electrophysiology assay (EP), Syncropatch 384PE, CHO cells expressing Nav1.7. It counts as cell-based. To be noted: holding potential −50 mV, 7.5 min compound incubation; read-out: EP_SP hNav1.7 EVO IC50. The source says:
Example 64c. Electrophysiological Assay (EP) (In Vitro Assay)
Patch voltage clamp electrophysiology allows for the direct measurement and quantification of block of voltage-gated sodium channels (NaV's), and allows the determination of the time- and voltage-dependence of block which has been interpreted as differential binding to the resting, open, and inactivated states of the sodium channel (Hille, B., Journal of General Physiology (1977), 69: 497-515).
The following voltage clamp electrophysiology studies are performed on representative compounds using cells heterologously expressing Nav1.7 or Nav1.5 channels. cDNAs for Nav1.7 (NM 002977) and Nav1.5 (AC137587) are stably expressed in Chinese Hamstr Ovary (CHO) cells and CHL (Chinese Hamster Lung) cells respectively. Sodium currents are measured in the whole-cell configuration using Syncropatch 384PE ([…], Germany). 1NPC®-384 chips with custom medium resistance and single hole mode are used. Internal solution consists of (in mM): […], 10CsCl, 20EGTA, and 10Hepes (pH adjusted to 7.2); and external solution contains (in mM): 60NMDG, 80NaCl, 4 KCl, 1MgCl2, 2CaCl2, 2D-Glucose monohydrate, 10Hepes (pH adjusted to 7.4 with NaOH).
After system flushing, testing compounds are dissolved in external solution containing 0.1% Pluronic F-127. The chip is moved into the measuring head and the instrument primes the chip with external and internal solutions. 10 μl cells are added to the chip from a cell hotel, and a negative pressure of −50 mBar is applied to form a seal. Following treatment with seal enhancer solution and wash-off with external solution, negative pressure of −250 mbar is applied for 1 second to achieve the whole-cell configuration, followed by three washing steps in external solution. 20 μl of compounds is added to 40 μl in each well (1:3 dilution of compounds), and after mixing, 20 μl is removed so the volume is retained at 40 ul. After approximately 13 minutes recordings, 20 μl/well of 2 uM TTX, or 333 uM Tetracaine (for Nav1.5) is added to achieve full block.
For voltage protocol, an holding potential of −50 mV is applied during the whole experiment. A depolarizing step is applied to −10 mV for 10 ms, followed by a hyperpolarization step to −150 mV for 20 ms to allow channel recovery from inactivation. A second depolarizing step is applied from −150 mV to −10 mV for 10 ms, where currents are measured to derive blocking effects of compounds. Inhibition is determined based on 7.5 min of compound incubation.
Target sequence in this assay (Q15858 other isoform, or with tags, fused parts or gaps): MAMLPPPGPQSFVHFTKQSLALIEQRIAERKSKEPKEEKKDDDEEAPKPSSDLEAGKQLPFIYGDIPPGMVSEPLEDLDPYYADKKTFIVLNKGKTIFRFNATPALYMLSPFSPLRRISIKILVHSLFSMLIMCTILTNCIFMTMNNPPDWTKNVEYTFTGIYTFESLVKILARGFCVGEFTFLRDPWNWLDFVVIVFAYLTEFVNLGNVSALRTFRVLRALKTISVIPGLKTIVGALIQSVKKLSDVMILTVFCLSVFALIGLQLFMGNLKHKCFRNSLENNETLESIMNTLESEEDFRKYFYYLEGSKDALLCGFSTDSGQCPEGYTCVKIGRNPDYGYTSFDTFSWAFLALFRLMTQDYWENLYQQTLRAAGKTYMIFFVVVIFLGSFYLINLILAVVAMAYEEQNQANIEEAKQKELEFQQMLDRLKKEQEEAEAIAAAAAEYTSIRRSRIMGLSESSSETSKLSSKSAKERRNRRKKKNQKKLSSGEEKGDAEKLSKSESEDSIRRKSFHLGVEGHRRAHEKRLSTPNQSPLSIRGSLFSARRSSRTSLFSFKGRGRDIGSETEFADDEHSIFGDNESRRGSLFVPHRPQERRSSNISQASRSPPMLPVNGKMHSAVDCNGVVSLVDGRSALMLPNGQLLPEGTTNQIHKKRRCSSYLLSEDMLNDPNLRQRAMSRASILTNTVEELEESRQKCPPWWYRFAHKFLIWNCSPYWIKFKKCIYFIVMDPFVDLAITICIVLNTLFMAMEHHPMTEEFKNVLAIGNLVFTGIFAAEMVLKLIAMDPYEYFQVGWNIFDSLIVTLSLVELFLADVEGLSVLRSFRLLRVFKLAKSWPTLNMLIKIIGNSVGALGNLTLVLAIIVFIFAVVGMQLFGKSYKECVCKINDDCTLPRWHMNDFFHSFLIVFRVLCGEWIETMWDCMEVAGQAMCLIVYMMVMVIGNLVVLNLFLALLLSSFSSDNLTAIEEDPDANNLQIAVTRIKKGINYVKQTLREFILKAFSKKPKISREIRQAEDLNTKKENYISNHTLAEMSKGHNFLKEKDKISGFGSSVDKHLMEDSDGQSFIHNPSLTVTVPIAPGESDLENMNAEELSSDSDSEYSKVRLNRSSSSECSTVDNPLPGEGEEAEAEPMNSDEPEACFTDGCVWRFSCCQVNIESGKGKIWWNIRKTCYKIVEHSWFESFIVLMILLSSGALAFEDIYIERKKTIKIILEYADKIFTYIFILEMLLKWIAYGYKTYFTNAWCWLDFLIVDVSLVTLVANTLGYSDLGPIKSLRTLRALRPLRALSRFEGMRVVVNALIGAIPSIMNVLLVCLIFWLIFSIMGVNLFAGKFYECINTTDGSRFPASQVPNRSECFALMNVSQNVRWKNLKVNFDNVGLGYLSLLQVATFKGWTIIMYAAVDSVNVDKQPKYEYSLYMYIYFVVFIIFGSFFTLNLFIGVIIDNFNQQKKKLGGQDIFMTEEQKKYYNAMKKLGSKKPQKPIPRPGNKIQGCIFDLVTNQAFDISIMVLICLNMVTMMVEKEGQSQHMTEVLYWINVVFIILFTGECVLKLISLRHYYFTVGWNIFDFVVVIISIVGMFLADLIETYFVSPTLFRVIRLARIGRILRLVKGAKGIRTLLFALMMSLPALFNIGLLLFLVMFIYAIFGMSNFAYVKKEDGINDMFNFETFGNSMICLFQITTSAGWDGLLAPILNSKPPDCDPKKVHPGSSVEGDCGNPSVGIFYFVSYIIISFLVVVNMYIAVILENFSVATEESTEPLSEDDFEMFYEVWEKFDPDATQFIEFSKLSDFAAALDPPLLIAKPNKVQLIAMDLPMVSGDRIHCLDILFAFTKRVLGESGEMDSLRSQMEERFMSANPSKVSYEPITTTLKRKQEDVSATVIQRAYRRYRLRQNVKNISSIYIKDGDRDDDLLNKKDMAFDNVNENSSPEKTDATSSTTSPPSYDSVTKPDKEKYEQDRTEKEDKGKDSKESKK
In general terms: The patch-clamp technique gives a direct electrical read-out from membranes.

Each structure is given as a SMILES string. Where a name gives a salt, the structure may show the parent alone.

This is an account of results in patent publication US12209075B2, “Pyridine-sulfonamide derivatives as sodium channel inhibitors” (GENENTECH, INC., priority 2018, dated 2025).

Usually IC50 stands for the midpoint of a concentration-inhibition curve. `O=S(=O)(Nc1ccncn1)c1ccc(N[C@H]2CC[C@H](c3cccc(OC(F)(F)F)c3)C[C@@H]2N2CCCC2)nc1` [Example 9, N-(pyrimidin-4-yl)-6-(((1S,2S,4S)-2-(pyrrolidin-1-yl)-4-(3-(trifluoromethoxy)phenyl)cyclohexyl)-amino)pyridine-3-sulfonamide formate]: the IC50 in assay [1] was determined as 4.11 nM; in assay [2], 0.664 nM.
For `CN(C)[C@H]1C[C@@H](c2cccc(Cl)c2)CC[C@@H]1Oc1ncc(S(=O)(=O)Nc2ccncn2)cc1Cl` [Example 27, 5-Chloro-6-(((1S,2S,4S)-4-(3-chlorophenyl)-2-(dimethylamino)cyclohexyl)oxy)-N-(pyrimidin-4-yl)pyridine-3-sulfonamide] the same measures were 7.12 nM and 0.574 nM.
For `Cc1nc(O[C@H]2CC[C@H](c3ccc(Cl)c(Cl)c3)C[C@@H]2N(C)C)ccc1S(=O)(=O)Nc1ccncn1` [Example 37, 6-(((1S,2S,4S)-4-(3,4-dichlorophenyl)-2-(dimethylamino)cyclohexyl)oxy)-2-methyl-N-(pyrimidin-4-yl)pyridine-3-sulfonamide] the same measures were 1.36 nM and 0.301 nM.
For `Cc1nc(O[C@H]2CC[C@H](c3cc(Cl)cc(Cl)c3)C[C@@H]2N(C)C)ccc1S(=O)(=O)Nc1ccncn1` [Example 50, 6-(((1S,2S,4S)-4-(3,5-dichlorophenyl)-2-(dimethylamino)cyclohexyl)oxy)-2-methyl-N-(pyrimidin-4-yl)pyridine-3-sulfonamide] the same measures were 1.12 nM and 0.222 nM.
